Laboratory results taken from patent US6905836B2, “Methods for identifying compounds that inhibit ubiquitin-mediated proteolysis of iκb” (Yissum Research Development Company of the Hebrew …, priority 2000, dated 2005).
Residues, ends and D or L forms follow the SMILES beside them. *: point of attachment. Cbz = O=C(OCc1ccccc1)*

B1: pIκBα: IKK phosphorylated IκBα protein (protein)
chain: MFQAAERPQEWAMEGPRDGLKKERLLDDRHDSGLDSMKDEEYEQMVKELQEIRLEPQEVPRGSEPWKQQLTEDGDSFLHLAIIHEEKALTMEVIRQVKGDLAFLNFQNNLQQTPLHLAVITNQPEIAEALLGAGCDPELRDFRGNTPLHLACEQGCLASVGVLTQSCTTPHLHSILKATNYNGHTCLHLASIHGYLGIVELLVSLGADVNAQEPCNGRTALHLAVDLQNPDLVSLLLKCGADVNRVTYQGYSPYQLTWGRPSTRIQQQLGQLTLENLQMLPESEDEESYDTESEFTEFTEDELPYDDCVFGGQRLTL

Columns and labels:
[1] = tested on: Vpu-mediated GFP-CD4 degradation; experiment: Vpu-mediated CD4 degradation assay (GFP-CD4, tet-off Vpu); type: cell-based, human; details: 293 cells, pretreatment of transfected cells, Western blotting (FIG. 7C)
Procedure: The inducible system consists of the tetracycline (Tc)-responsive promoter system developed by Gossen and Bujard (1992). Vpu and GFP-CD4 expression were performed in either HeLa Tet-off gene expression system (CLONTECH). These stably transfected HeLa cells carry the pTet-Off regulator plasmid encoding a tetracycline-controlled transactivator (tTA), which also includes a neomycin-resistance gene. Alternatively 293 cells were transfected with the inducible constructs and the pTet-Off plasmid (Lavon et al., 2000). […]
The ubiquitin-ligase activity is measured as a function of Vpu-mediated GFP-CD4 degradation (FIG. 7A). […] The N-terminal CD4 sequence, including the first three Ig-like domains (but preserving the CD4 signal sequence), was replaced with the human EGFP sequence for allowing the quantitative measurement of the fusion protein through the GFP fluorescence signal.
A GFP-CD4 expression plasmid was co-transfected into 293 cells together with expression plasmids for doxycycline (DOX)-regulated HIV-Vpu and tTA (tetracycline transactivator) plasmid. Vpu and GFP-CD4 expression were detected by Western blotting. […]

[2] = target: T1, E3RS-hnRNP-U complex (Homo sapiens, UniProt Q9Y297); experiment: Dissociation of E3RS from immobilized hnRNP-U by IκBα species; type: binding; details: anti-hnRNP-U immunobeads from Flag-E3RS transfected 293T cells; Western blot (FIG. 4D)
T1 construct: expressed in transfected cells; host or cells: 293T cells
T1 sequence (Q9Y297 1-605): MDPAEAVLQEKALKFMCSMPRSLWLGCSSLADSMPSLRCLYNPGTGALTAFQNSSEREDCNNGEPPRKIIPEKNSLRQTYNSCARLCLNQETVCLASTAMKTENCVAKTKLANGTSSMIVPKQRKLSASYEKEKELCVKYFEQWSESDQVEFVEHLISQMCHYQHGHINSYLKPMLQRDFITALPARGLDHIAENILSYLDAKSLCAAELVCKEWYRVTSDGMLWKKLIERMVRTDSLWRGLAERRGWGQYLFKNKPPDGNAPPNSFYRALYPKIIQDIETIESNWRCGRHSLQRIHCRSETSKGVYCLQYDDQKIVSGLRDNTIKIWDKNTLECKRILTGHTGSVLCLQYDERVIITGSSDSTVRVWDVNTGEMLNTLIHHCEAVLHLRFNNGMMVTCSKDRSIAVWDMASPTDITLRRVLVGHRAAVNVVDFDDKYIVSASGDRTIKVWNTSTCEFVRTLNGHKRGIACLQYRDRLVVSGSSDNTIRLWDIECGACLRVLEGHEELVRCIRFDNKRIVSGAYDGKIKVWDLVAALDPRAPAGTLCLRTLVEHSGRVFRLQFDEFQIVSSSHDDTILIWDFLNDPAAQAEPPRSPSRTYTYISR
Procedure: Flag-E3RS and endogenous hnRNP-U from 293T cells were used as an E3 source and Flag-WD was used as a negative control. 100 μg protein extract was immunoprecipitated using 2 μl anti-Flag beads or 0.21 μl anti-hnRNP-U antibodies. IκB was phosphorylated by the constitutively-active IκB kinase (IKK2; (Mercurio et al., 1997)) and subjected to binding and ubiquitination assays with each of the above E3 sources, as described previously by (Yaron et al., 1998).
Next, 293T cells transfected with Flag-E3RS were immunoprecipitated using anti-Flag (lanes 1,2) or anti-hnRNP-U (FIG. 4D, lanes 3-7) antibodies. IκBα (FIG. 4D, lanes 1,3,4) and IKK phosphorylated IκBα (pIκBα; FIG. 4D, lanes 2,5-7) were incubated with the immunobeads, after which, both the immunobeads (slurry (S); FIG. 4D, lanes 1-3,5) and the post-slurry fractions (PS; FIG. 4D, lanes 4,6) were analyzed by Western blot directly, or after immunoprecipitation of the post-slurry fraction (same as in FIG. 4D, lane 6) with anti-Flag beads (FIG. 4D, lane 7).

Molecule	GFP-CD4 signal upon Vpu expression [1]	dissociation of E3RS from immobilized hnRNP-U into the post-slurry fraction [2]
CC(C)C[C@@H](C=O)NC(=O)[C@H](CC(C)C)NC(=O)[C@H](CC(C)C)NC(=O)OCc1ccccc1 [MG132] (Cbz-Leu-Leu-Leu-aldehyde)	preservation of the GFP-CD4 signal	
B1		induced the dissociation of the E3RS from the immobilized hnRNP-U
